Measured values published in article PMC11981937 (Nature, 2025).
Where “and” joins values, the source holds several entries; their conditions need not be identical. Equal values may be shown once. Read-outs that look alike come from different tables or passages of the source.

How the values were obtained:
[1] = type: in vivo, Syrian golden hamster; conditions: JNJ-9676 75 mpk BID, pre-exposure, day 4 vs day 0, individual animals; 75 mg/kg
[2] = Post-exposure Syrian golden hamster model, body weight; conditions: in vivo, 75 mg/kg
[3] = system: Huh7 cells; conditions: human
[4] = female, Syrian golden, hamster, in vivo, po
[5] = in vivo; conditions: rat
[6] = in vivo; conditions: Syrian golden, hamster; for concentration at 0.05 h / concentration at 1 h / concentration at 2 h / concentration at 4 h / concentration at 7 h / concentration at 24 h / concentration at 12 h / concentration at 0.5 h: female
[7] = in vitro; conditions: human
[8] = in vitro; conditions: human; remark: listed apart in the source
[9] = po, 50 mg/kg, individual animal

With `C[C@H]1Cn2ncc(C(=O)Nc3cccc(C#N)c3)c2C(=O)N1c1ccc(C(F)(F)c2ccccc2)cc1` [JNJ-9676, (S)-N-(3-cyanophenyl)-5-(4-(difluoro(phenyl)methyl)phenyl)-6-methyl-4-oxo-4,5,6,7-tetrahydropyrazolo[1,5-a]pyrazine-3-carboxamide] the “% body weight change compared to day 0” value [1] was -0.3% and 0.3% and 3.9% and 4.1% and 2.7%, the “Average body weight change (%) on day 4 compared to day 0” value [2] was -0.615% and -5.840% and -3.968% and the CC50 [3] was > 30 µM. The “Concentration, individual animal” value ([4]; 5 mg/kg, 12 h) was 153 ng/mL, the “Concentration, individual animal” value ([4]; 50 mg/kg, 1 h) was 908 ng/mL and the Vd [5] was 8.4 L/kg. The clearance [5] was 5.2 mL/min/kg, the half-life [5] was 19 h and the bioavailability ([5]; po) was > 70%. For the same compound, the Vd [6] was 7.9 L/kg, the clearance [6] was 9 mL/min/kg and the half-life [6] was 13 h. For the same compound, the bioavailability ([6]; po) was > 50%, the concentration at 0.05 h ([6]; iv, 1 mg/kg, average) was 555 ng/mL and the concentration at 1 h ([6]; iv, 1 mg/kg, average) was 240 ng/mL. For the same compound, the concentration at 2 h ([6]; iv, 1 mg/kg, average) was 186 ng/mL, the concentration at 4 h ([6]; iv, 1 mg/kg, average) was 83.8 ng/mL and the concentration at 7 h ([6]; iv, 1 mg/kg, average) was 47.7 ng/mL. The concentration at 24 h ([6]; iv, 1 mg/kg, average) was 19.2 ng/mL, the concentration at 12 h ([6]; iv, 1 mg/kg, average, female hamster, IV 1 mg/kg, 12 h, n=3) was 25.1 ng/mL and the concentration at 0.05 h ([6]; iv, 1 mg/kg, individual animal) was 558 ng/mL. The concentration at 1 h ([6]; iv, 1 mg/kg, individual animal) was 268 ng/mL, the concentration at 2 h ([6]; iv, 1 mg/kg, individual animal) was 170 ng/mL and the concentration at 4 h ([6]; iv, 1 mg/kg, individual animal) was 75.9 ng/mL. It also gave a concentration at 7 h ([6]; iv, 1 mg/kg, individual animal) of 45.4 ng/mL, a concentration at 12 h ([6]; iv, 1 mg/kg, individual animal) of 26.7 ng/mL and a concentration at 24 h ([6]; iv, 1 mg/kg, individual animal) of 20.1 ng/mL. It also gave a concentration at 0.5 h ([6]; po, 5 mg/kg, average) of 68.1 ng/mL, a concentration at 1 h ([6]; po, 5 mg/kg, average) of 114 ng/mL and a concentration at 2 h ([6]; po, 5 mg/kg, average) of 220 ng/mL. It also gave a concentration at 4 h ([6]; po, 5 mg/kg, average) of 264 ng/mL, a concentration at 7 h ([6]; po, 5 mg/kg, average) of 176 ng/mL and a concentration at 12 h ([6]; po, 5 mg/kg, average) of 129 ng/mL. The concentration at 24 h ([6]; po, 5 mg/kg, average) was 82.6 ng/mL, the concentration at 0.5 h ([6]; po, 5 mg/kg, individual animal) was 71 ng/mL and the concentration at 1 h ([6]; po, 5 mg/kg, individual animal) was 95.4 ng/mL. For the same compound, the concentration at 2 h ([6]; po, 5 mg/kg, individual animal) was 230 ng/mL, the concentration at 7 h ([6]; po, 5 mg/kg, individual animal) was 142 ng/mL and the concentration at 12 h ([6]; po, 5 mg/kg, individual animal) was 89.2 ng/mL. It also gave a concentration at 12 h ([6]; po, 5 mg/kg, individual animal, female hamster, PO 5mg/kg, 12 h) of 145 ng/mL, a concentration at 0.5 h ([6]; po, 50 mg/kg, average) of 801 ng/mL and a concentration at 1 h ([6]; po, 50 mg/kg, average) of 1060 ng/mL. For the same compound, the concentration at 4 h ([6]; po, 50 mg/kg, average) was 2430 ng/mL, the concentration at 7 h ([6]; po, 50 mg/kg, average) was 2080 ng/mL and the concentration at 24 h ([6]; po, 50 mg/kg, average) was 655 ng/mL. The concentration at 2 h ([6]; po, 50 mg/kg, average, female hamster, PO 50mg/kg, 2 h, n=3) was 1760 ng/mL, the concentration at 12 h ([6]; po, 50 mg/kg, average, female hamster, PO 50mg/kg, 12 h, n=3) was 1200 ng/mL and the concentration at 0.5 h [6, 9] was 680 ng/mL. The concentration at 1 h [6, 9] was 829 ng/mL, the concentration at 2 h [6, 9] was 1580 ng/mL and the concentration at 4 h [6, 9] was 2230 ng/mL. The concentration at 7 h [6, 9] was 1510 ng/mL, the concentration at 1 h ([6]; po, 50 mg/kg, individual animal, female hamster, PO 50mg/kg, 1 h) was 1450 ng/mL and the CC50 ([7]; Median CC50) was > 20 µM. For the same compound, the CC50 ([7]; Median CC50, Huh7, line of MHV, N=2) was > 20 µM, the CC50 ([7]; Median CC50, Huh7, line of PDCoV, N=2) was > 30 µM and the CC50 at 6 days [8] was > 50 µM.
